# Laboratory results: patent publication US11832638B2, “N-acyl derivatives of gamma amino-butyric acid and beta alanine as food flavouring compounds” (GIVAUDAN SA, priority 2012, dated 2023)
# What was measured:
# [1] = Test in peach flavoured drink; details: 1 ppm, water, 8% sugar, 0.1% citric acid, peach flavour 0.05%
# Excerpt: Test in Peach Flavoured Drink:
# Base is water, 8% sugar, 0.1% citric acid, and proprietary peach flavour at 0.05%
# [2] = Test in 3 in 1 coffee; details: 1 ppm, 3-in-1 coffee beverage with sucrose and creamer with fat
# Procedure: In a 3 in 1 Coffee beverage from Nestle (market product) sweetened with sucrose and containing creamer with fat C18:2-gaba was added.
# (§1) Samples were evaluated by expert tasters. Tasters were asked to describe the samples focusing on authentic taste, mouthfeel, fullness, salivation, sweetness, juiciness, richness, long lastingness and fattiness.
# Base is 3-in-1 Coffee beverage (market product) sweetened with sucrose and containing creamer with fat
# [3] = Chocolate milk with different fat content
# Procedure: Chocolate Milk With Different Fat Content
# In a chocolate milk 1.8% and 3% fat C18:2-gaba was added at 0.5 and 1 ppm.
# as §1
# [4] = Mango flavoured still beverage with different levels of juice; details: 1 ppm, 8% sucrose, 0.1% citric acid, mango flavor 0.05%
# Procedure: Mango Flavoured Still Beverage Containing Different Levels Of Juice.
# In a Mango flavoured still beverage, sweetened with 8% sucrose and containing 0.1% citric acid and 1%, 4% and 6% clear mango juice flavoured with a proprietary Mango flavour @ 0.05%, C18:2-gaba was added, as such.
# All samples were evaluated by expert tasters. Tasters were asked to describe the samples focusing on authentic taste, juicy mouthfeel, enhancement, richness, juiciness, long lastingness, salivation, sweetness.
# In a Mango flavoured still beverage, sweetened with 8% sucrose & containing 0.1% citric acid and 1% clear mango juice flavoured with proprietary Mango flavour @ 0.05%, C18:2-gaba was added, as such.
# Base is water, 8% sucrose, 0.1% citric acid, 1% clear mango juice (very low juice %) , flavoured with Mango flavor, dosed at 0.05%
# In a Mango flavoured still beverage, sweetened with 8% sucrose & containing 0.1% citric acid and 4% clear mango juice flavoured with Mango flavour @ 0.05% , C18:2-gaba and C18:2-Pro were added, as such (separate) and in combination.
# Base is water, 8% sucrose, 0.1% citric acid, 4% clear mango juice (30% reduced juice), flavoured with Mango flavor, dosed at 0.05%
# A Mango-flavoured still beverage, sweetened with 8% sucrose & containing 0.1% citric acid and 6% clear mango juice flavoured with Mango flavour @ 0.05%, C18:2-gaba
# Base is water, 8% sucrose, 0.1% citric acid, 6% clear mango juice (full juice), flavoured with Mango flavor, dosed at 0.05%.
# [5] = Tasting in butter (Blueband halvarine); details: 1 ppm in Blueband halvarine 39% fat 0.35% salt
# Procedure: (§2) The following formulations were prepared and tasted by trained panelists.
# Blueband “halvarine” 39% fat 0.35% salt
# C18:2-gaba added at 1 ppm.
# [6] = Test on menthol fondant (1%); details: 2 ppm, fondant 65%, sugar syrup 34%, menthol flavour 1%
# Excerpt: Test on Menthol Fondant (1%)
# Base is Fondant 65%, sugar syrup 34% and a proprietary menthol flavour at 1%
# [7] = Test on Kikkoman soy sauce low salt; details: 0.5 ppm
# Excerpt: Test on Kikkoman Soy Sauce Low Salt
# Base is Kikkoman soy sauce
# [8] = UHT milk cream flavoured, non sweetened, different fat levels; details: 2 ppm, cream flavour 0.03%
# Procedure: The following tests were carried out on dairy products processed by fermentation, pasteurization or UHT. The products contain fat, protein and calcium.
# UHT Milk Cream Flavoured, Non Sweetened and Different Fat Levels
# In a UHT milk containing 0% 1.5% and 3% fat, flavoured with a proprietary cream flavour dosed at 0.03%
# C18:2-gaba was added at 2 ppm.
# Samples were evaluated by expert tasters.
# Tasters were asked to describe the samples focusing on authentic taste , mouthfeel, fullness, salivation, sweetness, juiciness, richness, long lastingness and fattiness.
# [9] = Tasting in fish based product (fish sauce)
# Procedure: as §2
# Salt level pure product between 5-40%
# Salt level in application 0.3-1.0%
# C18:2-gaba-(0.5 ppm) was added to a 1% diluted fish sauce sauce (0.27% salt).
# C18:2-gaba-(0.5 ppm) was added to pure fish sauce (27% salt).
# [10] = UHT sweetened banana flavoured milk, different fat levels; details: banana flavour 0.04%
# Procedure: UHT Sweetened Banana Flavoured Milk, With Different Fat Levels
# In a UHT milk with 0% and 3% fat sweetened with 4% sucrose by weight, flavoured with proprietary banana flavour dosed at 0.04%. C18:2 gaba was added at 0.25 ppm, 0.5 ppm and 1 ppm.
# as §1
# [11] = Comparison in a mango juice drink; details: 2 ppm, 8% sucrose, 0.1% citric acid, 0.18 g clear mango juice, mango flavour 0.05%
# Excerpt: Comparison in a Mango Juice Drink
# Base is 8% sucrose, 0.1% citric acid, 0.18 g clear mango juice, and a proprietary mango flavour at 0.05%.
# [12] = Tasting in fried potato snack product with cheese seasoning; details: fried potato base 35% fat
# Procedure: Snack Product A snack product consisting of a fried potato base, containing 35% fat and flavored with cheese seasoning containing salt, MSG, dairy, organic acids, sugars, and a flavour formulation. The following compounds were added to the snack product at the indicated levels and the tasting results arc reported: […]
# [13] = Tasting of baked pizza; details: 0.5 PPM in the crust and 0.5 PPM in the tomato sauce, baked in hot air oven at 200 degrees Celsius
# Excerpt: Differentiator high temperature 100-250 degrees Celsius in hot air baking process
# C18:2-gaba @ 0.5 PPM in the crust and @ 0.5 PPM in the tomato sauce
# The pizza was topped off with cheese and baked in a hot air oven @ 200 degrees Celsius
smiles,measurement,setting,value
CCCCC/C=C\C/C=C\CCCCCCCC(=O)NCCCC(=O)O [C18:2-gaba],taste description,[1],"fruity peach, long lasting, juicy and fatty skin like very authentic"
same,description by expert tasters,[2],"very nice mouthfeel effect, creamy as if coffee creamer is added, more sweet"
same,description by expert tasters,"[3]; 0.5 ppm, chocolate milk 1.8% fat","stronger cocoa note, more chocolate vs cocoa"
same,description by expert tasters,"[3]; 0.5 ppm, chocolate milk 3% fat","very creamy, enhanced cocoa note"
same,description by expert tasters,"[3]; 1 ppm, chocolate milk 1.8% fat","very creamy, chocolate, long-lasting creamy and chocolate taste"
same,description by expert tasters,"[3]; 1 ppm, chocolate milk 3% fat","very creamy, lasting, sweet, almost taste like chocolate ice cream"
same,description by expert tasters,[4]; 1% clear mango juice,"fatty skin-like, very juicy, authentic mango, much more mouthfeel, long lasting mango taste, mouthfeel is close to the full juice product"
same,description by expert tasters,[4]; 4% clear mango juice,"fatty skin-like, very juicy, authentic mango, long lasting mango taste, more mouthfeel than the full juice product"
same,description by expert tasters,[4]; 6% clear mango juice (full juice),"fatty skin-like, very thick juicy, authentic mango, long lasting mango taste, rich"
same,tasting result (trained panelists),[5],"more authentic butter taste, with more mouthfeel"
same,taste description,[6],"increased menthol impact, stronger cooling more sweet, long lasting, fresh"
same,taste description,[7],"much more salty, sweet and long lasting"
same,description by expert tasters,[8]; UHT milk 0% fat,"Very creamy, milky, long lasting"
same,description by expert tasters,[8]; UHT milk 1.5% fat,"very creamy, milky, long lasting, salivating"
same,description by expert tasters,[8]; UHT milk 3.0% fat,"very creamy, milky, long lasting, taste like whipped cream"
same,tasting result (trained panelists),[9]; 0.5 ppm in 1% diluted fish sauce (0.27% salt),"stronger in umami, longer lasting and richer"
same,tasting result (trained panelists),[9]; 0.5 ppm in pure fish sauce (27% salt),"strong in body and mouthfeel, more salty, richer with more rounded fish notes"
same,description by expert tasters,"[10]; 0.25 ppm, UHT milk 0% fat","fuller banana, more authentic, more sweet"
same,description by expert tasters,"[10]; 0.25 ppm, UHT milk 3% fat","more authentic, less estery and more round"
same,description by expert tasters,"[10]; 0.5 ppm, UHT milk 0% fat","fuller banana, authentic, creamy and sweet"
same,description by expert tasters,"[10]; 0.5 ppm, UHT milk 3% fat",creamy banana
same,description by expert tasters,"[10]; 1 ppm, UHT milk 0% fat","creamy, creamy banana, sweet aftertaste"
same,description by expert tasters,"[10]; 1 ppm, UHT milk 3% fat",creamy long lasting and more authentic and more impact
same,taste description,[11],"full long lasting nice juicy, almost a bit salty"
same,taste description,[11]; listed as C18:2 gaba,"fatty skin like, juicy, authentic"
same,tasting result,[12]; 0.5 ppm,"increased dairy, cheesy"
same,tasting result,[12]; 1 ppm,"Fatty full, cheesy, cheese crust, long lasting"
same,"taste of crust, tomato and aftertaste of pizza",[13],"less dry, more succulent and the tomato was richer, sweeter and the total lingering aftertaste was very rich and pleasant"
